From PubChem BioAssay (NCI)
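Cells were grown in 96-well plates and exposed to each compound for 48 hours at five concentrations; endpoints were interpolated linearly between bracketing concentrations, or set to the highest concentration if not reached. GI50: concentration for 50% inhibition of growth. Definition used: TGI = concentration required for complete inhibition of growth.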

What was measured:
Test in all cases: inhibition of tumour cell growth, NCI panel, 48 h
LOX IMVI melanoma = system: LOX IMVI melanoma
HOP-92 NSCLC = system: HOP-92 NSCLC
BT-549 breast = system: BT-549 breast
OVCAR-8 ovarian = system: OVCAR-8 ovarian
SW-620 colon = system: SW-620 colon
DU-145 prostate = system: DU-145 prostate
NCI-H226 lung = system: NCI-H226 lung
A498 renal = system: A498 renal
SF-268 CNS = system: SF-268 CNS
SR leukemia = system: SR leukemia

Row | SMILES | GI50 (LOX IMVI melanoma) [µM] | TGI (LOX IMVI melanoma) [µM] | GI50 (HOP-92 NSCLC) [µM] | TGI (HOP-92 NSCLC) [µM] | GI50 (BT-549 breast) [µM] | TGI (BT-549 breast) [µM] | GI50 (OVCAR-8 ovarian) [µM] | TGI (OVCAR-8 ovarian) [µM] | GI50 (SW-620 colon) [µM] | TGI (SW-620 colon) [µM] | GI50 (DU-145 prostate) [µM] | TGI (DU-145 prostate) [µM] | GI50 (NCI-H226 lung) [µM] | TGI (NCI-H226 lung) [µM] | GI50 (A498 renal) [µM] | TGI (A498 renal) [µM] | GI50 (SF-268 CNS) [µM] | TGI (SF-268 CNS) [µM] | GI50 (SR leukemia) [µM] | TGI (SR leukemia) [µM]
1 | Cc1cc(S(=O)(=O)Nc2nc3ccccc3s2)c(SCc2ccccc2)cc1Cl | 12.1 | 24.5 | 11.8 | 43.6 | 20.9 | 60.5 | 17 | 44.9 | 18.8 | 37.6 | 15.5 | 36.9 | 19.3 | 45.9 | 12.9 | 28.6 | 27.1 | 73.9 | 18.3 | 58
2 | O=C(Nc1n[nH]c2cc(-c3ccc(F)cc3)ccc12)C1CC1 | 10.7 | > 25 | 23.3 | > 25 | 12.4 | > 25 | 12.8 | > 25 | 7.69 | > 25 | 10.2 | > 25 | 9.29 | > 25 | 12.3 | > 25 | 11 | > 25 | 2.76 | > 25
3 | COc1cccc(/C=C/C(=O)c2cc3c(N)c(C(=O)Nc4ccccc4)sc3nc2C)c1 | 0.887 | 1.64 | 1.08 | 4.24 | 1.19 | 4.06 | 1.63 | > 50 | 1.12 | 3.09 | 1.39 | 4.37 | 1.15 | 2.75 | 1.18 | 4.41 | 1.47 | 5.82 | 1.28 | 6.46
4 | NS(=O)(=O)c1ccc(NC(=O)Nc2cccc3ccccc23)cc1 |  | > 100 |  | > 100 |  | > 100 |  | 40.6 |  | > 100 |  | 81.3 |  | 52.8 |  | 52.2 |  | 39.3 |  | > 100
5 | c1ccc(OCC[P+](c2ccccc2)(c2ccccc2)c2ccccc2)cc1 | 0.926 | 9.68 | 0.312 | 3.06 | 1.65 | 12 | 1.54 | 15 | 1.76 | 11.8 | 2.11 | 22.8 | 2.03 | 12.1 | 3.53 | 16.6 | 2.05 | 13.5 | 2.31 | 12.3
6 | OCC1OC(N2CCN(C3OC(CO)C(O)C(O)C3O)CC2)C(O)C(O)C1O (stereo not given) |  | > 100 |  | > 100 |  | > 100 |  | > 100 |  | > 100 |  | > 100 |  | > 100 |  | > 100 |  | > 100 |  | > 100
7 | O=C(Nc1ccc(-c2cn3ccccc3n2)cc1)c1cc(Br)ccc1O |  | > 100 |  | > 100 |  | > 100 |  | > 100 |  | > 100 |  | > 100 |  | > 100 |  | > 100 |  | > 100 |  | > 100
8 | O=C(COc1ccc(Cl)cc1Cl)NNc1ccc([N+](=O)[O-])cc1 | > 100 | > 100 | 12.1 | 31.7 | 24 | 52 | 98.9 | > 100 | > 100 | > 100 | 53.3 | > 100 | 28.9 | > 100 | 21.6 | 53.8 | 36.9 | > 100 | 49.9 | > 100
9 | Nc1cc2c3ccccc3ccc2c2ccccc12 | 9.13 | > 100 | > 100 | > 100 | > 77.1 | > 100 | > 44.6 | > 100 | > 100 | > 100 | > 87.4 | > 100 | > 61.4 | > 100 | > 100 | > 100 | > 100 | > 100 | > 100 | > 100
10 | COc1ccc(C2CC(=O)Nc3c2c(C)nn3-c2nc3ccccc3[nH]2)cc1OC (stereo not given) | 4.51 | 19.1 | 6.01 | 35.1 | 4.19 | 33.7 | 4.09 | 43.6 | 4.86 | 49.6 | 6.87 | 27.1 | 3.31 | 14.1 | 2.01 | 13.4 | 5.07 | > 69.5 | 3.36 | 26.2
